Assay results as given in PMC9145754, “Novel Soloxolone Amides as Potent Anti-Glioblastoma Candidates: Design, Synthesis, In Silico Analysis and Biological Activities In Vitro and In Vivo” (Pharmaceuticals, 2022).
Where two headings read alike, the source gives them in different places.

Columns and labels:
[1] = system: HuTu-80 cells; test: MTT cytotoxicity assay, HuTu-80; type: cell-based; settings: Homo sapiens, HuTu80, 24 h, read-out: IC50, Duodenum, HuTu-80
Description: (§1) In the first step of the study, we analyzed the cytotoxicity of novel soloxolone derivatives 1–12 in a panel of tumor cells, including human cervical carcinoma HeLa, human duodenal carcinoma HuTu-80 and murine melanoma B16 cells, as well as human non-transformed hFF3 foreskin fibroblasts. The cells were treated with derivatives for 24 h and cell viability was evaluated by 3-(4,5-dimethylthiazol-2-yl)-2,5-diphenyltetrazolium bromide (MTT) assay. SM was used as the reference compound.
(§2) The cells in the exponential growth phase were seeded in quadruplicate in 96-well plates at a density of 1 × 10^4 cells/well for HeLa, U87, U118, KELLY and Neuro2a cells; 1.5 × 10^4 cells/well for HuTu-80 cells; 2 × 10^4 cells/well for B16 cells; and 7 × 10^3 cells/well for hFF3 fibroblasts. Cells were incubated under standard conditions overnight followed by their treatment with the investigated compounds (1–20 µM) for 24 h. Then, 10 µL of MTT solution was added to the cells to a final concentration of 0.5 mg/mL and plates were placed under standard conditions for 3 h followed by an aspiration of MTT-containing medium and a dissolution of formazan crystals with 100 µL of DMSO. The absorbance of each well was read at test and reference wavelengths of 570 and 620 nm, respectively, on a Multiscan RC plate reader (Thermo LabSystems, Helsinki, Finland).

[2] = system: HeLa cells; test: MTT cytotoxicity assay, HeLa; type: cell-based; settings: Homo sapiens, 24 h, read-out: IC50, Cervix, HeLa
Description: as §1, §2

[3] = system: Neuro2a cells; test: MTT cytotoxicity assay, Neuro2a; type: cell-based, murine; settings: Mus musculus, N2a, 24 h, read-out: IC50, Neuroblastoma, Neuro2a
Description: (§3) To evaluate the antitumor activity of the synthesized soloxolone amides in brain tumor cells, the cytotoxicity of compounds 4–12, predicted as BBB-permeable (Figure 3), was further analyzed in human glioblastoma U87 and U118 cells, as well as human neuroblastoma KELLY and murine neuroblastoma Neuro2a cells.
as §2

[4] = system: U118 cells; test: MTT cytotoxicity assay, U118; type: cell-based; settings: Homo sapiens, 24 h, read-out: IC50, Glioblastoma, U118
Description: as §3, §2

[5] = system: B16 cells; test: MTT cytotoxicity assay, B16; type: cell-based, murine; settings: Mus musculus, 24 h, read-out: IC50, Melanoma, B16
Description: as §1, §2

[6] = system: panel of tumor cells; test: MTT cytotoxicity, values averaged over the cell panel; type: cell-based
Description: as §1, §2

[7] = system: KELLY cells; test: MTT cytotoxicity assay, KELLY; type: cell-based; settings: Homo sapiens, 24 h, read-out: IC50, Neuroblastoma, KELLY
Description: as §3, §2

[8] = system: U87 cells; test: MTT cytotoxicity assay, U87; type: cell-based; settings: Homo sapiens, U-87 MG, 24 h, read-out: IC50, Glioblastoma, U87
Description: as §3, §2

[9] = system: hFF3 foreskin fibroblasts; test: MTT cytotoxicity assay, hFF3 fibroblasts; type: cell-based, human
Description: as §1, §2

[10] = system: brain tumor cells; test: MTT cytotoxicity, values summarised over brain tumor cells; type: cell-based; settings: U87, U118, KELLY, Neuro2a; MTT 24 h; read-out: IC50 (median), brain tumor cells
Description: as §3, §2

[11] = aryl-containing amides versus SM, tumor cells of Table 1, MTT 24 h, read-out: average IC50 against tumor cells
[12] = average over Table 1 cell lines (worded 'in a panel of tumor cells'), MTT 24 h, read-out: average IC50

| melting point | SMILES | IC50 [1] | IC50 [2] | IC50 [3] | IC50 [4] | IC50 [5] | IC50 [6, 11] | IC50 [7] | IC50 [8] | IC50 ([9]; Homo sapiens, HFF-3, 24 h) | IC50 [6, 12] | IC50 [10] | IC50 ([6]; conclusions, soloxolone amides versus SM, read-out: average IC50 in a panel of tumor cell lines) | IC50 ([9]; 24 h) |
| --- | --- | --- | --- | --- | --- | --- | --- | --- | --- | --- | --- | --- | --- | --- |
| 250 °C | CC1(C)C(=O)C(C#N)=C[C@]2(C)C3=CC(=O)[C@@H]4[C@@H]5C[C@@](C)(C(=O)Nc6cccnc6)CC[C@]5(C)CC[C@@]4(C)[C@]3(C)CCC12 (stereo partly shown) [compound 10, N-(Pyridin-3-yl)-2-Cyano-3,12-dioxo-18βH-olean-9(11),1(2)-dien-30-amide] | 1500 ± 200 nM | 1800 ± 100 nM | 1400 ± 100 nM | 2100 ± 200 nM | 1700 ± 100 nM | 1500 to 1800 nM | 1500 ± 100 nM | 2500 ± 200 nM | 1600 ± 100 nM |  |  |  |  |
| 139 °C (dec.) | CC(C)(C)c1cc(CCCNC(=O)[C@@]2(C)CC[C@]3(C)CC[C@]4(C)[C@H](C(=O)C=C5[C@@]6(C)C=C(C#N)C(=O)C(C)(C)C6CC[C@]54C)[C@@H]3C2)cc(C(C)(C)C)c1O (stereo partly shown) [compound 11, N-(3′-(3′’,5′’-di-tert-butyl-4′’-hydroxyphenyl)propyl)-2-Cyano-3,12-dioxo-18βH-olean-9(11),1(2)-dien-30-amide] | 1500 ± 100 nM | 2500 ± 100 nM | 1400 ± 100 nM | 1900 ± 100 nM | 1400 ± 100 nM | 1500 to 1800 nM | 1800 ± 200 nM | 1500 ± 100 nM | 1300 ± 200 nM |  |  |  |  |
| 283 °C (dec.) | CC1(C)C(=O)C(C#N)=C[C@]2(C)C3=CC(=O)[C@@H]4[C@@H]5C[C@@](C)(C(=O)Nc6ccc(Br)cc6)CC[C@]5(C)CC[C@@]4(C)[C@]3(C)CCC12 (stereo partly shown) [compound 8, N-(4′-Bromophenyl)-2-Cyano-3,12-dioxo-18βH-olean-9(11),1(2)-dien-30-amide] | 1400 ± 100 nM | 1500 ± 100 nM | 1600 ± 100 nM | 2000 ± 100 nM | 1900 ± 100 nM | 1500 to 1800 nM | 1400 ± 100 nM | 1700 ± 100 nM | 1800 ± 100 nM |  |  |  |  |
| 115.9 °C (dec.) | COCCNC(=O)[C@@]1(C)CC[C@]2(C)CC[C@]3(C)[C@H](C(=O)C=C4[C@@]5(C)C=C(C#N)C(=O)C(C)(C)C5CC[C@]43C)[C@@H]2C1 (stereo partly shown) [compound 5, N-(2′-Methoxyethyl)-2-cyano-3,12-dioxo-18βH-olean-9(11),1(2)-dien-30-amide] | 2300 ± 200 nM | 1500 ± 200 nM | 2700 ± 300 nM | 7000 ± 700 nM | 1600 ± 100 nM |  | 1600 ± 100 nM | 5500 ± 1100 nM | 12800 nM |  |  |  | 12900 ± 800 nM |
| 115.7 °C (dec.) | CC1(C)C(=O)C(C#N)=C[C@]2(C)C3=CC(=O)[C@@H]4[C@@H]5C[C@@](C)(C(=O)NCCCCCO)CC[C@]5(C)CC[C@@]4(C)[C@]3(C)CCC12 (stereo partly shown) [compound 4, N-(5′-Hydroxypentyl)-2-cyano-3,12-dioxo-18βH-olean-9(11),1(2)-dien-30-amide] | 1300 ± 100 nM | 2300 ± 400 nM | 1900 ± 200 nM | 3100 ± 500 nM | 1500 ± 100 nM |  | 1500 ± 100 nM | 2000 ± 100 nM | 3600 ± 300 nM | 2200 nM |  |  |  |

Continued, molecule first:

| SMILES | melting point | IC50 [1] | IC50 [2] | IC50 [3] | IC50 [4] | IC50 [5] | IC50 [6, 11] | IC50 [7] | IC50 [8] | IC50 ([9]; Homo sapiens, HFF-3, 24 h) | IC50 [6, 12] | IC50 [10] | IC50 ([6]; conclusions, soloxolone amides versus SM, read-out: average IC50 in a panel of tumor cell lines) | IC50 ([9]; 24 h) |
| --- | --- | --- | --- | --- | --- | --- | --- | --- | --- | --- | --- | --- | --- | --- |
| CC1(C)C(=O)C(C#N)=C[C@]2(C)C3=CC(=O)[C@@H]4[C@@H]5C[C@@](C)(C(=O)NCCCO)CC[C@]5(C)CC[C@@]4(C)[C@]3(C)CCC12 (stereo partly shown) [compound 3, N-(3′-Hydroxypropyl)-2-cyano-3,12-dioxo-18βH-olean-9(11),1(2)-dien-30-amide] | 150.8 °C (dec.) | 1700 ± 200 nM | 3500 ± 200 nM |  |  | 1400 ± 100 nM |  |  |  | 6800 ± 1300 nM | 3400 nM |  |  |  |
| CN(C)CCNC(=O)[C@@]1(C)CC[C@]2(C)CC[C@]3(C)[C@H](C(=O)C=C4[C@@]5(C)C=C(C#N)C(=O)C(C)(C)C5CC[C@]43C)[C@@H]2C1 (stereo partly shown) [compound 6, N-(2′-(Dimethylamino)ethyl)-2-Cyano-3,12-dioxo-18βH-olean-9(11),1(2)-dien-30-amide] |  | 2100 ± 500 nM | 2600 ± 500 nM | 2800 ± 400 nM | 3800 ± 500 nM | 3300 ± 500 nM |  | 1600 ± 100 nM | 4600 ± 400 nM | 4100 ± 300 nM | 3000 nM |  |  |  |
| COC(=O)[C@@]1(C)CC[C@]2(C)CC[C@]3(C)[C@H](C(=O)C=C4[C@@]5(C)C=C(C#N)C(=O)C(C)(C)C5CC[C@]43C)[C@@H]2C1 (stereo partly shown) [SM, soloxolone methyl, reference compound] |  | 1500 ± 100 nM | 1300 ± 100 nM | 1400 ± 100 nM | 1900 ± 100 nM | 1600 ± 100 nM | 1500 nM | 1600 ± 100 nM | 1800 ± 100 nM | 4000 ± 400 nM | 2100 nM | 1400 nM | 1600 nM |  |
| Cc1ccc(NC(=O)[C@@]2(C)CC[C@]3(C)CC[C@]4(C)[C@H](C(=O)C=C5[C@@]6(C)C=C(C#N)C(=O)C(C)(C)C6CC[C@]54C)[C@@H]3C2)cc1 (stereo partly shown) [compound 9, N-p-Tolyl-2-cyano-3,12-dioxo-18βH-olean-9(11),1(2)-dien-30-amide] |  | 1500 ± 100 nM | 1600 ± 100 nM | 1600 ± 100 nM | 1900 ± 200 nM | 2100 ± 300 nM | 1500 to 1800 nM | 1400 ± 100 nM | 2000 ± 200 nM | 3600 ± 300 nM |  |  |  |  |
| CN(C)CCCNC(=O)[C@@]1(C)CC[C@]2(C)CC[C@]3(C)[C@H](C(=O)C=C4[C@@]5(C)C=C(C#N)C(=O)C(C)(C)C5CC[C@]43C)[C@@H]2C1 (stereo partly shown) [compound 7, N-(3′-(Dimethylamino)propyl)-2-cyano-3,12-dioxo-18βH-olean-9(11),1(2)-dien-30-amide] |  | 2000 ± 700 nM | 4900 ± 800 nM | 3700 ± 600 nM | 5200 ± 1300 nM | 3300 ± 800 nM |  | 1800 ± 300 nM | 5300 ± 700 nM | 7700 ± 1100 nM | 4500 nM |  |  |  |
| CC1(C)C(=O)C(C#N)=C[C@]2(C)C3=CC(=O)[C@@H]4[C@@H]5C[C@@](C)(C(=O)O)CC[C@]5(C)CC[C@@]4(C)[C@]3(C)CCC12 (stereo partly shown) [compound 1, 2-Cyano-3,12-dioxo-18βH-olean-9(11),1(2)-dien-30-oic acid] |  | 2500 ± 300 nM | 9900 ± 700 nM |  |  | 4200 ± 300 nM |  |  |  | 16000 ± 1900 nM | 8200 nM |  |  |  |
| CC1(C)C(=O)C(C#N)=C[C@]2(C)C3=CC(=O)[C@@H]4[C@@H]5C[C@@](C)(C(=O)NCCO)CC[C@]5(C)CC[C@@]4(C)[C@]3(C)CCC12 (stereo partly shown) [compound 2, N-(2′-Hydroxyethyl)-2-cyano-3,12-dioxo-18βH-olean-9(11),1(2)-dien-30-amide] | 152.7 °C (dec.) | 1400 ± 100 nM | 1500 ± 100 nM |  |  | 3300 ± 200 nM |  |  |  | 1200 ± 100 nM | 1900 nM |  |  |  |
